Assay [1] concerns JY-8 cells (expressing LFA-1) adhering to immobilized ICAM-1. As to the kind of experiment: ICAM-1/JY-8 Cell Adhesion Assay (46B). In kind it is cell-based, human. The conditions noted are these: Homo sapiens, JY-8 cell adhesion to ICAM-1; for inhibition at 2 µM: @ 2 μM compound (cell). The procedure:
Biologically relevant activity of the compounds in this invention was confirmed using a cell-based adhesion assay, (described below as assay 46B) which measured the ability of the present compounds to block the adherence of JY-8 cells (a human EBV-transformed B cell line expressing LFA-1 on its surface) to immobilized ICAM-1.
46B. ICAM-1 /JY-8 Cell Adhesion Assay
For measurement of inhibitory activity in the cell-based adhesion assay, 96-well microtiter plates are coated with 70 μL of recombinant ICAM-1/g (ICOS Corporation) at a concentration of 5 μg/mL in D-PBS w/o Ca^++ or Mg^++ overnight at 4° C. The wells are then washed twice with D-PBS and blocked by addition of 200 μL of D-PBS, 5% fish skin gelatin by incubation for 1 hour at room temperature. Fluorescent tagged JY-8 cells (a human EBV-transformed B cell line expressing LFA-1 on its surface; 50 μL at 2×10^6 cells/ml in RPMI 1640 (standard cell culture medium)/1% fetal bovine serum) are added to the wells. For fluorescent labeling of JY-8 cells, 5×10^6 cells washed once in RPMI 1640 are resuspended in 1 mL of RPMI 1640 containing 2 μM Calceiun AM (MolecularProbes), are incubated at 37° C for 30 minutes and washed once with RPMI-1640/1% fetal bovine serum. Dilutions of compounds to be assayed for ICAM-1/LFA-1 antagonistic activity are prepared in RPMI-1640/1% fetal bovine serum from 10 mM stock solutions in DMSO and 50 μL are added to duplicate wells. Microtiter plates are incubated for 45 minutes at room temperature and the wells are washed gently once with RPMI-1640/1% fetal bovine serum. Fluorescent intensity is measured in a fluorescent plate reader with an excitation wavelength at 485 nm and an emission wavelength at 530 nm. The percent inhibition of a candidate compound at a given concentration is calculated using the following equation: [formula]
and these concentration/inhibition data are used to generate dose response curves, from which IC50 values are derived.

Assay [2] addresses T1, ICAM-1/LFA-1 interaction (recombinant LFA-1, biotinylated recombinant ICAM-1/Ig) (Homo sapiens, UniProt P20701).
T1 construct: Recombinant LFA-1 (100 mL of 0.7 mg/ml, ICOS Corporation) in D-PBS is then added to each well
As to the kind of experiment: ICAM-1/LFA-1 Biochemical Interaction Assay (46A). In kind it is binding. The procedure: Compounds that antagonize the interaction between ICAM-1 and LFA-1 can be identified, and their activities quantitated, using both biochemical and cell-based adhesion assays. A primary biochemical assay, described below as assay 46A, was utilized to measure the ability of the present compounds to block the interaction between the integrin LFA-1 and its adhesion partner ICAM-1.
46A. ICAM-1/LFA-1 Biochemical Interaction Assay
In the biochemical assay, 100 mL of anti-LFA-1 antibody (ICOS Corporation) at a concentration of 5 mg/ml in Dulbecco's phosphate-buffered saline (D-PBS) is used to coat wells of a 96-well microtiter plate overnight at 4° C. The wells are then washed twice with wash buffer (D-PBS w/o Ca^++ or Mg^++, 0.05% Tween 20) and blocked by addition of 200 mL of D-PBS, 5% fish skin gelatin. Recombinant LFA-1 (100 mL of 0.7 mg/ml, ICOS Corporation) in D-PBS is then added to each well. Incubation continues for 1 hour at room temperature and the wells are washed twice with wash buffer. Serial dilutions of compounds being assayed as ICAM-1/LFA-1 antagonists, prepared as 10 mM stock solutions in dimethyl sulfoxide (DMSO), are diluted in D-PBS, 2 mM MgCl2, 1% fish skin gelatin and 50 mL of each dilution added to duplicate wells. This is followed by addition of […] of 0.8 mg/ml biotinylated recombinant ICAM-1/Ig (ICOS Corporation) to the wells and the plates are incubated at room temperature for 1 hour The wells are then washed twice with wash buffer and 100 mL of Europium-labeled Streptavidin (Wallac Oy) diluted 1:100 in Delfia assay buffer (Wallac Oy) are added to the wells. Incubation proceeds for 1 hour at room temperature. […] Incubation proceeds for 5 minutes with constant mixing.
where “background” refers to wells that are not coated with anti-LFA-1 antibody.

Where [3] appears, read: @ 2 μM compound, read-out: % inhibition.

As a reminder, the inhibition is the percentage by which the read-out fell short of the control.

Where two headings read alike, the source gives them in different places.

T1 sequence (P20701 26-1170): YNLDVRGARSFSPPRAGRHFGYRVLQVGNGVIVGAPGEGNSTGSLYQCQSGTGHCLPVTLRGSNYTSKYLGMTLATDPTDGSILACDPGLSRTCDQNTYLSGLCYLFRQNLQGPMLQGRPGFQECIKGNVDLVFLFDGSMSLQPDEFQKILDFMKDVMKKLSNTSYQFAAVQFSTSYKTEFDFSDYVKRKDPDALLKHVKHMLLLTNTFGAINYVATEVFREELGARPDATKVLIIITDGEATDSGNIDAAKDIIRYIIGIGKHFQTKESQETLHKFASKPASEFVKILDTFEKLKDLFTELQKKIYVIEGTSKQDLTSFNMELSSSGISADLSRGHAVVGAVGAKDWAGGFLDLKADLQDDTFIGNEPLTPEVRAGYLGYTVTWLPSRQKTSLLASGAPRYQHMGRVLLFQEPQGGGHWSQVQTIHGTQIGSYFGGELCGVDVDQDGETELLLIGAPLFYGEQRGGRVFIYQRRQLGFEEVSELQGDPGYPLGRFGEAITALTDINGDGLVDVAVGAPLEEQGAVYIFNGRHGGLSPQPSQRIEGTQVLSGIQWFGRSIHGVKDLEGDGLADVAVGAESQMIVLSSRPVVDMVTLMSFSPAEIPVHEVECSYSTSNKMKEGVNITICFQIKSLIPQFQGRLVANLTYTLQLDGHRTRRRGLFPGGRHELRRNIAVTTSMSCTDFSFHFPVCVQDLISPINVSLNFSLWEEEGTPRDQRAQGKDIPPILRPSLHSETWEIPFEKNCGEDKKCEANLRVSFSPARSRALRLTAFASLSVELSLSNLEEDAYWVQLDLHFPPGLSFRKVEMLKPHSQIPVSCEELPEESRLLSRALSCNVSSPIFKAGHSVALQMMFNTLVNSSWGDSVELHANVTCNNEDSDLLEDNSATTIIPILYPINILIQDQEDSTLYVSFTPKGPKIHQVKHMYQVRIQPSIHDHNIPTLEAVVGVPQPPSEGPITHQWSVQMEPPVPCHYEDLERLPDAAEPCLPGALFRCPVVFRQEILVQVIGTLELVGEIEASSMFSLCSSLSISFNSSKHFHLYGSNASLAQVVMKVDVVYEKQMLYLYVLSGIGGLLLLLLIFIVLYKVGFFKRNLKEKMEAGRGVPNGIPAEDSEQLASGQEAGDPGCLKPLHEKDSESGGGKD
T1 sequence (P05107 23-769 partner): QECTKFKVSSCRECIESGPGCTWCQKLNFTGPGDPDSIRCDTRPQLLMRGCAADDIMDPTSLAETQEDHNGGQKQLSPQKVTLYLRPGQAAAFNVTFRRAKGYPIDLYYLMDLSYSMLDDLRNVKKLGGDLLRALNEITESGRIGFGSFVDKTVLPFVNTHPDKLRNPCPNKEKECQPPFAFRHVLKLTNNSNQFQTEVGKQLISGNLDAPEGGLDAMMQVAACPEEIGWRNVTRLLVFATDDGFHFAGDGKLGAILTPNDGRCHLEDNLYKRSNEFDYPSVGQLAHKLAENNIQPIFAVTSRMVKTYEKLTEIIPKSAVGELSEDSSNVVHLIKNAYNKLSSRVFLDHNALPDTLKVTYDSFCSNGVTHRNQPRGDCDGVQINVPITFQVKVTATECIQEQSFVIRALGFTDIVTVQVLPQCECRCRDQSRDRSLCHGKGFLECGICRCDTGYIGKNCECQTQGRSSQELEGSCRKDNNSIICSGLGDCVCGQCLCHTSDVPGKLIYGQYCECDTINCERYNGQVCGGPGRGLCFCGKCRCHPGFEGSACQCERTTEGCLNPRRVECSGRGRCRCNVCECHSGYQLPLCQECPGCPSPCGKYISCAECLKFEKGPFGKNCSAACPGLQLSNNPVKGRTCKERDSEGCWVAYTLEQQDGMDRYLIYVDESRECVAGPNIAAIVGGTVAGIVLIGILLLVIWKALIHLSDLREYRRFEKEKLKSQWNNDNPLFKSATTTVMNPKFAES

Turning to `CC(C)c1ccccc1Sc1ccc(C2CC2C(=O)NCCCN2CCCC2=O)c(Cl)c1Cl` (racemic) [Example 22, (±)-(2-Isopropylphenyl)[2,3-dichloro-4-(trans-(2-((3-(1-pyrrolidin-2-onyl)-prop-1-ylamino)carbonyl)cycloprop-1-yl)phenyl]sulfide], in assay [1], the inhibition at 2 µM worked out at 92%. Take `O=C(NCCCN1CCCC1=O)C1CC1c1ccc(Sc2ccccc2N2CCCC2)c(C(F)(F)F)c1` (racemic) [Example 10, (±)-(2-Pyrrolidin-1-ylphenyl)[2-trifluoromethyl-4-(trans-(2-((3-(1-pyrrolidin-2-onyl)-prop-1-ylamino)carbonyl)cycloprop-1-yl)phenyl]sulfide]: the inhibition at 4 µM in assay [1] (@ 4 μM compound) stood at 72%. With `O=C(O)C1CCCN(c2ccccc2Sc2ccc(C3CC3C(=O)NCCCN3CCCC3=O)cc2C(F)(F)F)C1` (mixture of isomers) [Example 6, (±)-(2-(2-carboxyethyl)phenyl)[2-trifluoromethyl-4-(trans-(2-((3-(1-pyrrolidin-2-onyl)-prop-1-ylamino)carbonyl)cycloprop-1-yl)phenyl]sulfide], the inhibition at 2 µM in assay [2] (@ 2 μM compound) is 93%. As for `CC(C)c1ccccc1Sc1ccc(C2CC2C(=O)N2CCC2)c(Cl)c1Cl` (racemic) [Example 25, (±)-(2-Isopropylphenyl)[2,3-dichloro-4-(trans-(2-(azetidin-1-yl)carbonyl)cycloprop-1-yl)phenyl]sulfide], the inhibition at 2 µM in assay [2] (setting [3]) amounted to 95%.

In the case of `CC(C)c1ccccc1Sc1ccc(C2CC2C(=O)N2CCOCC2)c(Cl)c1Cl` (racemic) [Example 20, (±)-(2-Isopropylphenyl)[2,3-dichloro-4-(trans-(2-(morpholin-1-yl)carbonyl)cycloprop-1-yl)phenyl]sulfide], in assay [2] (setting [3]), the inhibition at 2 µM turned out to be 96%.

As for `CC(C)c1ccccc1Sc1ccc(C2CC2C(=O)NCC(=O)O)c(Cl)c1Cl` (racemic) [Example 2, (±)-(2-Isopropylphenyl)[2,3-dichloro-4-(trans-(carboxymethylamino)carbonyl)cycloprop-1-yl)phenyl]sulfide], the inhibition at 2 µM in assay [2] (setting [3]) was determined as 95%. Turning to `CC(C)c1ccccc1Sc1ccc([C@@H]2C[C@H]2C(=O)N2CCCCC2C(=O)O)c(Cl)c1Cl` (mixture of isomers) [Example 19, (±)-(2-Isopropylphenyl)[2,3-dichloro-4-(trans-(2-(2-carboxypiperidin-1-yl)carbonyl)cycloprop-1-yl)phenyl]sulfide], the “% inhibition” value in assay [2] (@ 4 μM compound) came out at 96% @ 4 μM.

`O=C(NCCCN1CCCC1=O)[C@@H]1C[C@H]1c1ccc(Sc2ccccc2Br)c(C(F)(F)F)c1` (relative stereo) [Example 4]: the “% inhibition” value in assay [2] (@ 2 μM compound, 2 µM) was found to be 81% @ 2 μM. `CC(C)c1ccccc1Sc1ccc(C2CC2C(=O)N2CCCC(C(=O)O)C2)c(Cl)c1Cl` (racemic) [Example 3, (±)-(2-Isopropylphenyl)[2,3-dichloro-4-(trans-(2-(3-carboxypiperidine))carbonyl)cycloprop-1-yl)phenyl]sulfide] came in with an inhibition at 2 µM in assay [1] of 90%. `O=C(O)C1CC1c1ccc(Sc2ccccc2N2CCOCC2)c(Cl)c1Cl` (racemic) [Example 12, (±)-(2-Morpholin-1-ylphenyl)[2,3-dichloro-4-(trans-(2-carboxycycloprop-1-yl)phenyl]sulfide]: the inhibition at 4 µM in assay [2] (@ 4 μM compound) was 91%.

As to `O=C(NCCCN1CCCC1=O)C1CC1c1ccc(Sc2cccc(N3CCOCC3)c2)c(C(F)(F)F)c1` (racemic) [Example 11, (±)-(3-Morpholin-1-ylphenyl)[2-trifluoromethyl-4-(trans-(2-((3-(1-pyrrolidin-2-onyl)-prop-1-ylamino)carbonyl)cycloprop-1-yl)phenyl]sulfide], the inhibition at 4 µM in assay [2] (@ 4 μM compound) came out at 44%. As to “(±)-(2-Isopropylphenyl)[2,3-dichloro-4-(trans-2-(cyclobutylaminocarbonyl)cycloprop-1-yl)phenyl]sulfide [Example 24]”, in assay [2] (@ 4 μM compound), the “% inhibition” value is 96% @ 4 μM.

“(±)-(2-Isopropylphenyl)[2,3-dichloro-4-(trans-(2-(4-acetylpiperazin-1-yl)carbonyl)cycloprop-1-yl)phenyl]sulfide [Example 21]”: the “% inhibition” value in assay [2] (@ 4 μM compound) amounted to 96% @ 4 μM. The same measure, in the same setting: then “(±)-(2-Isopropylphenyl)[2,3-dichloro-4-(trans-(2-(morpholin-1-yl)carbonyl)cycloprop-1-yl)phenyl]sulfide [Example 20]”, with 96% @ 4 μM. As to `O=C(NCCCN1CCCC1=O)C1CC1c1ccc(Sc2ccccc2Br)c(C(F)(F)F)c1` (racemic) [Example 1, (±)-(2-Bromophenyl)[2-trifluoromethyl-4-(trans-(2-((3-(1-pyrrolidin-2-onyl)-prop-1-ylamino)carbonyl)cycloprop-1-yl)phenyl]sulfide], in assay [2] (@ 4 μM compound), the inhibition at 4 µM came out at 92%. As to `CC(C)c1ccccc1Sc1ccc(C2CC2C(=O)NCCCC(=O)O)c(Cl)c1Cl` (racemic) [Example 17, (±)-(2-Isopropylphenyl)[2,3-dichloro-4-(trans-(2-(3-carboxypropylamino)carbonyl)cycloprop-1-yl)phenyl]sulfide], at 2 µM the inhibition in assay [1] was 86%.

On to `CC(C)c1ccccc1Sc1ccc([C@@H]2C[C@H]2C(=O)NC2CCC2)c(Cl)c1Cl` (racemic) [Example 24, (±)-(2-Isopropylphenyl)[2,3-dichloro-4-(trans-2-(cyclobutylaminocarbonyl)cycloprop-1-yl)phenyl]sulfide], for which the inhibition at 2 µM in assay [2] (setting [3]) stood at 94%. With `O=C(O)C1CC1c1ccc(Sc2ccccc2Br)c(Cl)c1Cl` (racemic) [Example 15, (±)-(2-Bromophenyl)[2,3-dichloro-4-(trans-(2-carboxycycloprop-1-yl)phenyl]sulfide], the inhibition at 4 µM in assay [2] (@ 4 μM compound) was found to be 88%.

On to “(±)-(2-Bromophenyl)[2-trifluoromethyl-4-(trans-(2-((3-(1-pyrrolidin-2-onyl)-prop-1-ylamino)carbonyl)cycloprop-1-yl)phenyl]sulfide [Example 1]”, for which the “% inhibition” value in assay [2] (@ 2 μM compound) is 96% @ 2 μM.

With “(±)-(2-Isopropylphenyl)[2,3-dichloro-4-(trans-(2-(4-carboxypiperidin-1-yl)carbonyl)cycloprop-1-yl)phenyl]sulfide [Example 18]”, the “% inhibition” value in assay [2] (@ 4 μM compound) is 94% @ 4 μM.

`O=C(NCCCN1CCCC1=O)[C@@H]1C[C@H]1c1ccc(Sc2ccccc2Br)c(C(F)(F)F)c1` (relative stereo) [Example 5]: the “% inhibition” value in assay [2] (@ 2 μM compound, 2 µM) came out at 94% @ 2 μM. Molecule `O=C(NCCCN1CCCC1=O)C1CC1c1ccc(Sc2ccccc2N2CCOCC2)c(C(F)(F)F)c1` (racemic) [Example 7, (±)-(2-Morpholin-1-ylphenyl)[2-trifluoromethyl-4-(trans-(2-((3-(1-pyrrolidin-2-onyl)-prop-1-ylamino)carbonyl)cycloprop-1-yl)phenyl]sulfide] showed an inhibition at 1 µM in assay [1] (@ 1 μM compound (cell)) of 84%. For the molecule `COc1ccccc1Sc1ccc(C2CC2C(=O)NCC(=O)O)c(Cl)c1Cl` (mixture of isomers) [Example 12], the inhibition at 4 µM in assay [2] (@ 4 μM compound) was found to be 93%. Same read-out and setting: next, `COc1ccccc1Sc1ccc(C2CC2C(=O)NCCC(=O)O)c(Cl)c1Cl` (mixture of isomers) [Example 13]: 95%.

Values taken from US6521619B2, “Aryl phenylcyclopropyl sulfide derivatives and their use as cell adhesion inhibiting anti-inflammatory and immune suppressive agents” (Icos Corporation, priority 2000, dated 2003).
